# Like-named read-outs stand apart in the source and are kept apart here.
# What was measured:
# [1] = target: T1, CNGA3 plus CNGB3-F525N channels (Homo sapiens, UniProt Q16281+Q9NQW8, F525N); test: Inside-out patch-clamp recording of channels expressed in Xenopus oocytes (CNGB3 F525N); assay type: biochemical
# T1 construct: expressed in transfected cells; host or cells: Xenopus laevis oocytes injected with cRNA transcribed from pGEMHE constructs
# T1 sequence (Q16281 1-694): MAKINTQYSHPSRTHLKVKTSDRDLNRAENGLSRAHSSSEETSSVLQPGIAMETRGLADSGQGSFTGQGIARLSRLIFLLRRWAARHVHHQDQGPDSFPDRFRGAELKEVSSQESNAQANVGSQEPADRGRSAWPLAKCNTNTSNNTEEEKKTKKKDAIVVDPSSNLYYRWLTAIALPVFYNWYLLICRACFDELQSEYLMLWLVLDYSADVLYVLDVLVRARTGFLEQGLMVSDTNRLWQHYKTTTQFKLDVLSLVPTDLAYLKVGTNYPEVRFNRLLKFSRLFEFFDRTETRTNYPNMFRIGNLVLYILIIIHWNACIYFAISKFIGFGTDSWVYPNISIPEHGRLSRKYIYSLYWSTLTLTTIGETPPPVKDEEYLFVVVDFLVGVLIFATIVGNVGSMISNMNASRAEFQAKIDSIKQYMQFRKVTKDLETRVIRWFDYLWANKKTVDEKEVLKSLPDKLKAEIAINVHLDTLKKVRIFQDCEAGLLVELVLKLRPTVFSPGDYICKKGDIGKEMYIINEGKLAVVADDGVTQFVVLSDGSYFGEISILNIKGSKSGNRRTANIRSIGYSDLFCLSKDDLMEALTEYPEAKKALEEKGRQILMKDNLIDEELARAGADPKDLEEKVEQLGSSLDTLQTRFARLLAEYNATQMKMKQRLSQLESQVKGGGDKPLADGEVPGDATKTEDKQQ
# T1 sequence (Q9NQW8 1-809 F525N): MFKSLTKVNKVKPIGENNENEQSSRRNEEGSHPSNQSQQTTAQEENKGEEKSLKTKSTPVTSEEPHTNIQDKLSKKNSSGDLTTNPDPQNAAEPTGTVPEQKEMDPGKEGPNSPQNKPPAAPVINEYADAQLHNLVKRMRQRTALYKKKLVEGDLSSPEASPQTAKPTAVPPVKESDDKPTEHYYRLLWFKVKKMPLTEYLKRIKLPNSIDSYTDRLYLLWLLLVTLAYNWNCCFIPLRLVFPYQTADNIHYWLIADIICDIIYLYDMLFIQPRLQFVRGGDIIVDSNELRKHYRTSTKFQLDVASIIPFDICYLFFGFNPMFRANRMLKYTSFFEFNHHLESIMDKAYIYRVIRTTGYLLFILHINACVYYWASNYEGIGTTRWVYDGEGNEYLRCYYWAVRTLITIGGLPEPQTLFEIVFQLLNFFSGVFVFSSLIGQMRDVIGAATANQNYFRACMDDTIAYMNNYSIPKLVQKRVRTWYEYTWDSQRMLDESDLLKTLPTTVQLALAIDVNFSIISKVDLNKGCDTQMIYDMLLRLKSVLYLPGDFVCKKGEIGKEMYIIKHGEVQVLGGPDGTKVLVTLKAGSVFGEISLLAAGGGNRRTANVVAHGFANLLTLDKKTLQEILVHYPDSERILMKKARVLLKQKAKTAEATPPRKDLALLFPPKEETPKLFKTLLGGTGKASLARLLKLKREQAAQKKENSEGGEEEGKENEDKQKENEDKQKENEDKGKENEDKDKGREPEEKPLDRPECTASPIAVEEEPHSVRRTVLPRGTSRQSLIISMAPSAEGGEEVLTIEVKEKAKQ
# Protocol: (§1) For heterologous expression in Xenopus laevis oocytes, identical amounts of cDNA were linearized using SphI or NheI, and capped cRNA was transcribed in vitro using the T-7 RNA polymerase mMESSAGE mMACHINE® kit (Ambion, Austin, TX). cRNA concentrations and relative amounts were determined by denaturing gel electrophoresis and KODAK 1D image analysis software (Rochester, NY), as well as by spectrophotometry. […] Oocytes were incubated in ND96 (96 mM NaCl, 2 mM KCl, 1.8 mM CaCl2, 1 mM MgCl2, and 5 mM HEPES, pH 7.6, supplemented with 10 μg/ml gentamycin).
# Two to seven days after microinjection of cRNA, patch-clamp experiments were performed using the inside-out configuration with an Axopatch 200B amplifier (Axon Instruments, Foster City, CA). Recordings were made at 20–23 °C. Data were acquired using Pulse software (HEKA Elektronik, Lambrecht, Germany). Current traces were elicited by voltage steps from a holding potential of 0 mV to +80 mV, then to −80 mV and back to 0 mV. Initial pipette resistances were 0.4–0.8 megaohms. Intracellular and extracellular solutions contained 130 mM NaCl, 0.2 mM EDTA, and 3 mM HEPES (pH 7.2). Intracellular solutions were exchanged using an RSC-160 rapid solution changer (Molecular Kinetics, Indianapolis, IN). Currents in the absence of cyclic nucleotides were subtracted. For channel activation by CPT-cGMP or CPT-cAMP, dose–response data were fitted with the Hill equation, I/Imax=([cNMP]^h/(K1/2^h + [cNMP]^h)), where I is the current amplitude at +80 mV, Imax is the maximum current elicited by saturating concentration of ligand, [cNMP] is the ligand concentration, K1/2 is the apparent ligand affinity, and h is the Hill slope. We measured sensitivity to block by L-cis-diltiazem (RBI, Natick, MA) applied to the intracellular face of the patch in the presence of 0.1 μM CPT-cGMP. Data were fit with a modified Hill equation in the form I blocker/I=(K1/2^h/(K1/2^h + [blocker]^h)). Data were analyzed using Igor (Wavemetrics, Lake Oswego, OR), SigmaPlot, and SigmaStat (Systat Software Inc., San Jose, CA). All values are reported as the mean±standard error of the mean of n experiments unless otherwise indicated. Statistical significance was determined using a Student t test or Mann–Whitney rank sum test, and a p value of <0.05 was considered significant.
# [2] = target: T2, homomeric CNGA3-only channels (Homo sapiens, UniProt Q16281); test: Inside-out patch-clamp recording of channels expressed in Xenopus oocytes (CNGA3 only); assay type: biochemical; conditions: +80 mV, Hill fit, mean±SEM, n=9
# T2 construct: expressed in transfected cells; host or cells: Xenopus laevis oocytes injected with cRNA transcribed from pGEMHE constructs
# T2 sequence (Q16281 1-694): T1 sequence (Q16281 1-694)
# Protocol: as §1
# Two to seven days after microinjection of cRNA, patch-clamp experiments were performed using the inside-out configuration with an Axopatch 200B amplifier (Axon Instruments, Foster City, CA). Recordings were made at 20–23 °C. Data were acquired using Pulse software (HEKA Elektronik, Lambrecht, Germany). Current traces were elicited by voltage steps from a holding potential of 0 mV to +80 mV, then to −80 mV and back to 0 mV. […] We measured sensitivity to block by L-cis-diltiazem (RBI, Natick, MA) applied to the intracellular face of the patch in the presence of 0.1 μM CPT-cGMP. […] Data were analyzed using Igor (Wavemetrics, Lake Oswego, OR), SigmaPlot, and SigmaStat (Systat Software Inc., San Jose, CA). […] Statistical significance was determined using a Student t test or Mann–Whitney rank sum test, and a p value of <0.05 was considered significant.
compound,measurement,setting,value
"Nc1ncnc2c1nc(Sc1ccc(Cl)cc1)n2[C@@H]1O[C@@H]2COP(=O)(O)O[C@H]2[C@H]1O [CPT-cAMP, CPT-adenosine 3′,5′-cyclic monophosphate]","relative agonist efficacy Imax, CPT-cAMP/Imax, CPT-cGMP","[1]; +80 mV, CPT-cAMP 100 μM vs CPT-cGMP 4 μM, mean±SEM, n=15",0.49±0.04
same,"Hill slope h, CPT-cAMP activation","[1]; Hill fit, mean±SEM, n=15",1.4±0.08
same,EC50,"[1]; Hill fit, mean±SEM, n=15, read-out: apparent affinity K1/2, CPT-cAMP (channel activation)",13800 ± 1400 nM
same,"Hill slope h, CPT-cAMP, representative dose-response","[1]; representative patch, Figure 5A",1.0
same,EC50,"[1]; representative patch, Figure 5A, read-out: K1/2,CPT-cAMP, representative dose-response",10800 nM
"Nc1nc2c(nc(Sc3ccc(Cl)cc3)n2[C@@H]2O[C@@H]3COP(=O)(O)O[C@H]3[C@H]2O)c(=O)[nH]1 [CPT-cGMP, 8-(4-chlorophenylthio) guanosine 3′,5′-cyclic monophosphate]","Hill slope h, CPT-cGMP activation","[1]; +80 mV, Hill fit, mean±SEM",1.8±0.04
same,EC50,"[1]; +80 mV, Hill fit, mean±SEM, read-out: apparent CPT-cGMP affinity K1/2, CPT-cGMP (channel activation)",86.8 ± 10.6 nM
same,maximum patch current density (Imax/area),"[1]; +80 mV, saturating CPT-cGMP (4 μM), mean±SEM, n=15",80.3±18.6 pA/μm^2
same,"Hill slope h, CPT-cGMP, representative dose-response","[1]; representative patch, Figure 1B",1.7
same,EC50,"[1]; representative patch, Figure 1B, read-out: K1/2,CPT-cGMP, representative dose-response",79 nM
same,"Hill slope h, CPT-cGMP activation",[2],2.2±0.1
same,EC50,"[2]; read-out: apparent CPT-cGMP affinity K1/2, CPT-cGMP (channel activation)",114 ± 7.9 nM
